From patent US20120190666A1, “Heteroaryl Compounds as PIKK Inhibitors” (Amgen Inc., priority 2009, published 2012)

The compounds below were run against T1, PI3Kα (Homo sapiens, UniProt P42336) (assay: In vitro PI3K AlphaScreen assay, PI3Kα). Details: PI(4,5)P2 substrate, 20 minutes at room temperature, read-out: P13Kalpha IC50 um.
T1 construct: Full length p110 subunits of PI3K α, β and δ, N-terminally labeled with polyHis tag; polyHis (N); made in house; host or cells: Sf9 insect cells (baculovirus)
T1 sequence (P42336 whole entry): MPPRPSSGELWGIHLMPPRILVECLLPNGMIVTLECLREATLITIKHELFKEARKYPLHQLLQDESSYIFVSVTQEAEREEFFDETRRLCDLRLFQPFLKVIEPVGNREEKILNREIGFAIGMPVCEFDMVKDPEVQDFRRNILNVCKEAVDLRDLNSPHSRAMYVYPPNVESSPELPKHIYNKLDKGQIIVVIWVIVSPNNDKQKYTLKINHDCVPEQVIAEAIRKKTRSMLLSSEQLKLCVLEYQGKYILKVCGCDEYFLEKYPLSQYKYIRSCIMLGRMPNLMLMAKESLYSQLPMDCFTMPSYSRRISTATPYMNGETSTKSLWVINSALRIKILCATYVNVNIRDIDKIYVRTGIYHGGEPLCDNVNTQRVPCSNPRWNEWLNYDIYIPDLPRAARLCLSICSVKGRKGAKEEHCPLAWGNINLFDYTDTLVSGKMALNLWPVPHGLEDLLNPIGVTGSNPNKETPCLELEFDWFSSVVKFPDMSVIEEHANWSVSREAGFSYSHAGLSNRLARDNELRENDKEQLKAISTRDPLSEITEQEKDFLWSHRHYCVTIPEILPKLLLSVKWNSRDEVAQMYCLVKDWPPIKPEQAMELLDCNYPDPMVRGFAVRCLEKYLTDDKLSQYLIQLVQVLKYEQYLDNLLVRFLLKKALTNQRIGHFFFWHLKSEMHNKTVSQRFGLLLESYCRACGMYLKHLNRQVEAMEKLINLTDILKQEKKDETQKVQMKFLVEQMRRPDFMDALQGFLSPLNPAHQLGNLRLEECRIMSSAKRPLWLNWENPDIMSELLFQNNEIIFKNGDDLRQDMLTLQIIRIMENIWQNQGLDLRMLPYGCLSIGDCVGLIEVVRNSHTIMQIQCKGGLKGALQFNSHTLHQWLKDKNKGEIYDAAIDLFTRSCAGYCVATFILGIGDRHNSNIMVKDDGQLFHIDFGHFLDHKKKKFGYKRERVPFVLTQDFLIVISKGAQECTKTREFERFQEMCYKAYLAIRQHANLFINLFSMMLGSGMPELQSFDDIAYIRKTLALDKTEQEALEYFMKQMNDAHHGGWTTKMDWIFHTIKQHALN
T1 sequence (P27986 whole entry partner): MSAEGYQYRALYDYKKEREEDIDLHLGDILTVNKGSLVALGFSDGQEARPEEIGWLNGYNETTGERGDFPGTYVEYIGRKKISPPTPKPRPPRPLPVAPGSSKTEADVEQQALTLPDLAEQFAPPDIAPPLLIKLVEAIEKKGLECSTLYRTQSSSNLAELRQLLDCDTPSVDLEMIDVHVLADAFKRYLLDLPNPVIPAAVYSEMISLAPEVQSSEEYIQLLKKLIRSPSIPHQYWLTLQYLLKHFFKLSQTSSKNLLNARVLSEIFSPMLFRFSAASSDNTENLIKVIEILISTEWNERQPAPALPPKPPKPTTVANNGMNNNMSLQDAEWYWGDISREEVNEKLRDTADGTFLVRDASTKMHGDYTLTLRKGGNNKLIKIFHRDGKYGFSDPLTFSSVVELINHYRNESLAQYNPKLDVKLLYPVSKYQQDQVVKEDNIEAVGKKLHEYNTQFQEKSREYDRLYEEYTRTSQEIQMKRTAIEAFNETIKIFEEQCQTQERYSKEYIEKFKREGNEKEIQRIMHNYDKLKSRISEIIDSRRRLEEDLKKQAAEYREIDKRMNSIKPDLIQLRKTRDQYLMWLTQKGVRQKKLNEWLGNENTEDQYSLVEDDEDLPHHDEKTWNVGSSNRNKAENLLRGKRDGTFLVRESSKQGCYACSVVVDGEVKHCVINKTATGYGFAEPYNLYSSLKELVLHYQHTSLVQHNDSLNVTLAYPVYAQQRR
Format: biochemical
Experimental: The PI3K AlphaScreen® assay (PerkinElmer, Waltham, Mass.) measures the activity of a panel of four phosphoinositide 3-kinases: PI3Kα, PI3KIβ, PI3Kγ, and PI3Kδ. Each of these enzymes phosphorylates the 3′-hydroxyl group on phosphatidylinositiol (4,5)-bisphosphate (PIP2) to produce phosphatidylinositol (3,4,5)-trisphosphate (PIP3). This phosphorylation activity is measured using a GST-tagged PIP3 binding protein (Echelon Biosciences, Salt Lake City, Utah), an anti-GST-tagged Acceptor bead, and streptavidin-Donor bead. The interaction of biotinylated-PIP3 analog (IP4) and the PIP3 binding protein brings both Acceptor and Donor beads together producing, upon excitation of the Donor beads at 680 nm, a singlet oxygen species leading to the luminescent AlphaScreen® signal. When PIP3 is produced via phosphorylation of PIP2 by a PI3K, PIP3 competes with biotinylated-PIP3 analog (IP4) for binding to the PIP3 binding protein. In the absence of this interaction, proximity of the Donor and Acceptor beads is decreased, producing a loss of luminescent signal which is […] to PI3K activity. […] The enzyme reaction buffer is made using sterile water (Baxter, Deerfield, Ill.) and 50 mM Tris HCl pH 7, 14 mM MgCl2, 2 mM sodium cholate, and 100 mM NaCl. 2 mM DTT is added fresh the day of the experiment. The AlphaScreen® reaction buffer is made using sterile water and 10 mM Tris HCl pH 7.5, 150 mM NaCl, 0.10% Tween 20, and 30 mM EDTA. 1 mM DTT is added fresh the day of the experiment. The source plates for this assay are 384-well Greiner clear polypropylene plates containing test compounds at 5 mM and diluted 1:2 over 22 points. Columns 23 and 24 contain only DMSO as these are designated for positive and negative controls. Source plates are replicated into 384-well Optiplates (PerkinElmer, Waltham, Mass.), 0.5 μL/well, to make assay-ready plates. The different PI3K isoforms are each diluted in enzyme reaction buffer to 2× working solutions. PI3Kα is diluted to 1.6 nM, PI3Kβ is diluted to 0.8 nM, PI3Kγ is diluted to 15 nM, and PI3Kδ is diluted to 1.6 nM. Two different 2× substrate solutions are made in enzyme reaction buffer. In one solution, PI(4,5)P2 (Echelon Biosciences, Salt Lake City, Utah) is diluted to 10 μM and ATP is diluted to 20 μM. This solution is used in the assays testing PI3Kα and PI3Kβ. In a second solution, PI(4,5)P2 is diluted to 10 μM and ATP is diluted to 80 μM. This solution is used in the assays testing PI3Kγ and PI3Kδ. The AlphaScreen® reaction solutions are made using beads from the anti-GST AlphaScreen® kit (PerkinElmer, Waltham, Mass.). Two solutions are made in Alphascreen reaction buffer to 4× working concentrations. In one solution, biotinylated-IP4 (Echelon Biosciences, Salt Lake City, Utah) is diluted to 40 nM and streptavadin-Donor Beads are diluted to 80 μg/mL. In the second solution, PIP3-binding protein (Echelon Biosciences, Salt Lake City, Utah) is diluted to 40 nM and anti-GST-Acceptor Beads are diluted to 80 μg/mL. 10 μL/well of enzyme reaction buffer is added to Column 24 of the assay ready plates in place of enzyme. This is done for plates in the PI3Kα, β, and δ assays. Using a 384-well dispensing Multidrop (Titertek, Huntsville, Ala.), 10 μL/well of 2× enzyme (PI3Kα, β, δ) is added to Columns 1-23 of the appropriate assay ready plates (for PI3Kγ 10 μL is added to Columns 1-24). 10 μL/well of the appropriate substrate solution (the solution with 20 μM ATP for PI3Kα and β assays, and the solution with […] for PI3Kγ and δ assays) is then added to Columns 1-24 of the plates. Plates are then incubated at room temperature for 20 minutes. In the dark, 10 μL/well of the Donor Bead solution is added to Columns 1-24 of the plates to quench the enzyme reaction. The plates are incubated at room temperature for 30 minutes. Still in the dark, 10 μL/well of the Acceptor Bead solution is also added to Columns 1-24 of the plates. The plates are then incubated in the dark for 1.5 hours.
`Cc1nc(N)cc(-c2c(Nc3ccn(C(=O)Nc4cc(F)cc(F)c4)n3)nc3cccnn23)n1` [Cpd 242, 3-((3-(6-amino-2-methyl-4-pyrimidinyl)imidazo[1,2-b]pyridazin-2-yl)amino)-N-(3,5-difluorophenyl)-1H-pyrazole-1-carboxamide] was tested, and the IC50 was 2.32 µM. Work on `COCCOc1cnnc(Nc2cc(-c3c(Nc4ccc(NC(C)=O)cc4)nc4cccnn34)nc(C)n2)c1` [Cpd 53, N-(4-((3-(6-((5-(2-methoxyethoxy)-3-pyridazinyl)amino)-2-methyl-4-pyrimidinyl)imidazo[1,2-b]pyridazin-2-yl)amino)phenyl)acetamide] yielded an IC50 of 0.02 µM. In the case of `Cc1nc(N)cc(-c2c(Nc3ccn(C(=O)NCc4ccccc4)n3)nc3ccccn23)n1` [Cpd 222, 3-((3-(6-amino-2-methyl-4-pyrimidinyl)imidazo[1,2-a]pyridin-2-yl)amino)-N-benzyl-1H-pyrazole-1-carboxamide], the IC50 is reported as 1.2 µM. Work on `Cc1nc(N)nc(-c2c(Nc3cc[nH]n3)nc3ccc(-c4cccc(NC(=O)C5CC5)c4)cn23)n1` [Cpd 115, N-(3-(3-(4-amino-6-methyl-1,3,5-triazin-2-yl)-2-(1H-pyrazol-3-ylamino)imidazo[1,2-a]pyridin-6-yl)phenyl)cyclopropanecarboxamide] yielded an IC50 of 0.04 µM. For `CSc1cccc(-c2ccc3nc(Nc4cc[nH]n4)c(-c4nc(C)nc(N)n4)n3c2)c1` [Cpd 109, 3-(4-amino-6-methyl-1,3,5-triazin-2-yl)-6-(3-(methylsulfanyl)phenyl)-N-1H-pyrazol-3-ylimidazo[1,2-a]pyridin-2-amine], the IC50 was 0.47 µM. `Cc1nc(N)nc(-c2c(Nc3cc[nH]n3)nc3ccc(C4=CCN(C(=O)OC(C)(C)C)CC4)cn23)n1` [Cpd 97, tert-butyl 4-(3-(4-amino-6-methyl-1,3,5-triazin-2-yl)-2-(1H-pyrazol-3-ylamino)imidazo[1,2-a]pyridin-6-yl)-3,6-dihydro-1(2H)-pyridinecarboxylate] showed an IC50 of 0.35 µM. Work on `Cc1nc(N)nc(-c2c(Nc3cc[nH]n3)nc3ccc(-c4ccc(F)cc4C)cn23)n1` [Cpd 107, 3-(4-amino-6-methyl-1,3,5-triazin-2-yl)-6-(4-fluoro-2-methylphenyl)-N-1H-pyrazol-3-ylimidazo[1,2-a]pyridin-2-amine] yielded an IC50 of 0.25 µM. In the case of `CNC(=O)c1ccc(-c2ccc3nc(Nc4cc[nH]n4)c(-c4nc(C)nc(N)n4)n3c2)cc1F` [Cpd 99, 4-(3-(4-amino-6-methyl-1,3,5-triazin-2-yl)-2-(1H-pyrazol-3-ylamino)imidazo[1,2-a]pyridin-6-yl)-2-fluoro-N-methylbenzamide], the IC50 is reported as 0.11 µM. Work on `Cc1nc(N)nc(-c2c(Nc3cc[nH]n3)nc3ccc(-c4ccc(S(C)(=O)=O)cc4)cn23)n1` [Cpd 344, 3-(4-amino-6-methyl-1,3,5-triazin-2-yl)-6-(4-(methylsulfonyl)phenyl)-N-1H-pyrazol-3-ylimidazo[1,2-a]pyridin-2-amine] yielded an IC50 of 0.07 µM. For `Cc1nc(N)nc(-c2c(Nc3cc[nH]n3)nc3cc(OCCN4CCCC4)ccn23)n1` [Cpd 188], the IC50 was 7.01 µM. `Cc1nc(N)cc(-c2c(Nc3ccn(-c4ccccn4)n3)nc3ccccn23)n1` [Cpd 216, 3-(6-amino-2-methyl-4-pyrimidinyl)-N-(1-(2-pyridinyl)-1H-pyrazol-3-yl)imidazo[1,2-a]pyridin-2-amine] gave an IC50 of 1.37 µM. `Cc1nc(N)cc(-n2nc(C(=O)NC3CC3)cc2Nc2cc[nH]n2)n1` [Cpd 16, 5-(1H-pyrazol-5-ylamino)-1-(6-amino-2-methylpyrimidin-4-yl)-N-cyclopropyl-1H-pyrazole-3-carboxamide] showed an IC50 of 2.38 µM. Compound `Cc1nc(N)nc(-c2c(Nc3cc[nH]n3)nc3ccc(Nc4ccncc4)cn23)n1` [Cpd 166] has an IC50 of 5.65 µM. Work on `Cc1nc(N)nc(-c2c(Nc3ccn(C(=O)Nc4ccccc4)n3)nc3ccccn23)n1` [Cpd 204, 3-((3-(4-amino-6-methyl-1,3,5-triazin-2-yl)imidazo[1,2-a]pyridin-2-yl)amino)-N-phenyl-1H-pyrazole-1-carboxamide] yielded an IC50 of 3 µM. With `Cc1nc(NCC#N)cc(-c2c(Nc3cc[nH]n3)nc3cccnn23)n1` [Cpd 90] the IC50 was 0.59 µM. In the case of `CCNC(=O)Nc1ccc(Nc2nc3ccccn3c2-c2cc(N)nc(C)n2)cc1` [Cpd 40, 1-(4-((3-(6-amino-2-methyl-4-pyrimidinyl)imidazo[1,2-a]pyridin-2-yl)amino)phenyl)-3-ethylurea], the IC50 is reported as 0.45 µM. `CC(=O)NCc1ccc(-c2ccc3nc(Nc4cc[nH]n4)c(-c4nc(C)nc(N)n4)n3c2)cc1` [Cpd 100, N-(4-(3-(4-amino-6-methyl-1,3,5-triazin-2-yl)-2-(1H-pyrazol-3-ylamino)imidazo[1,2-a]pyridin-6-yl)benzyl)acetamide] showed an IC50 of 0.42 µM. In the case of `Cc1nc(N)nc(-c2c(Nc3cc[nH]n3)nc3ccccn23)n1` [Cpd 1, 3-(4-amino-6-methyl-1,3,5-triazin-2-yl)-N-(1H-pyrazol-3-yl)imidazo[1,2-a]pyridin-2-amine], the IC50 is reported as 0.82 µM. For `CCOC(=O)c1cc(Nc2cc[nH]n2)n(-c2cc(N)nc(C)n2)n1` [Cpd 15, ethyl 5-(1H-pyrazol-3-ylamino)-1-(6-amino-2-methylpyrimidin-4-yl)-1H-pyrazole-3-carboxylate], the IC50 was 0.34 µM. `COCC(=O)Nc1cc(-c2c(Nc3ccn(C)n3)nc3cccnn23)nc(C)n1` [Cpd 123, 2-methoxy-N-(2-methyl-6-(2-((1-methyl-1H-pyrazol-3-yl)amino)imidazo[1,2-b]pyridazin-3-yl)-4-pyrimidinyl)acetamide] gave an IC50 of 6.93 µM. For `Cc1nc(Nc2cccnn2)cc(-c2c(Nc3ccn(C)n3)nc3cccnn23)n1` [Cpd 34, N-(1-methyl-1H-pyrazol-3-yl)-3-(2-methyl-6-(3-pyridazinylamino)-4-pyrimidinyl)imidazo[1,2-b]pyridazin-2-amine], the IC50 was 0.75 µM. In the case of `CNc1nc(C)nc(-c2c(Nc3cc[nH]n3)nc3ccccn23)n1` [Cpd 3, 3-(4-methyl-6-(methylamino)-1,3,5-triazin-2-yl)-N-(1H-pyrazol-3-yl)imidazo[1,2-a]pyridin-2-amine], the IC50 is reported as 0.82 µM. Work on `Cc1nc(N)cc(-c2c(Nc3ccn(C)n3)nc3ccc(-c4cccc(S(C)(=O)=O)c4)cn23)n1` [Cpd 65, 3-(6-amino-2-methyl-4-pyrimidinyl)-N-(1-methyl-1H-pyrazol-3-yl)-6-(3-(methylsulfonyl)phenyl)imidazo[1,2-a]pyridin-2-amine] yielded an IC50 of 8.69 µM. `Cc1nc(NC(=O)C2CC2)cc(-c2c(Nc3cc[nH]n3)nc3cccnn23)n1` [Cpd 120] gave an IC50 of 1 µM. Compound `Cc1nc(N)nc(-c2c(Nc3cc[nH]n3)nc3ccc(-c4ccc5c(c4)CCNC5=O)cn23)n1` [Cpd 175, 6-(3-(4-amino-6-methyl-1,3,5-triazin-2-yl)-2-(1H-pyrazol-3-ylamino)imidazo[1,2-a]pyridin-6-yl)-3,4-dihydro-1(2H)-isoquinolinone] has an IC50 of 0.14 µM. With `Cc1nc(N)cc(-c2c(Nc3ccc(NC(=O)Nc4ccncc4)cc3)nc3ccccn23)n1` [Cpd 57, 1-(4-((3-(6-amino-2-methyl-4-pyrimidinyl)imidazo[1,2-a]pyridin-2-yl)amino)phenyl)-3-(4-pyridinyl)urea] the IC50 was 0.01 µM. `Cc1nc(N)nc(-c2c(Nc3cc[nH]n3)nc3cc(C4=CCN(C(=O)OC(C)(C)C)CC4)ccn23)n1` [Cpd 183, tert-butyl 4-(3-(4-amino-6-methyl-1,3,5-triazin-2-yl)-2-(1H-pyrazol-3-ylamino)imidazo[1,2-a]pyridin-7-yl)-3,6-dihydro-1(2H)-pyridinecarboxylate] was tested, and the IC50 was 0.05 µM.
